Test results published in patent US20230117328A1, “METHODS TO TREAT CANCER USING (R)-N-(3-FLUORO-4-((3-((1-HYDROXYPROPAN-2-YL)AMINO)-1H-PYRAZOLO[3,4-B]PYRIDIN-4-YL)OXY)PHENYL)-3-(4-FLUOROPHENYL)-1-ISOPROPYL-2,4-DIOXO-1,2,3,4-TETRAHYDROPYRIMIDINE-5-CARBOXAMIDE” (Array BioPharma Inc., priority 2020, published 2023).

Tests used:
[1] = test system: MC-38 colon adenocarcinoma tumors; assay: Antitumor efficacy in syngeneic MC-38 colon adenocarcinoma tumor-bearing mice; format: in vivo, C57BL/6 mice; settings: MC-38 tumor-bearing mice; for Median Survival (days): not reached = more than 50% of animals alive at end of study (Day 66), 50 mg/kg
Experimental: Female C57BL/6 bearing syngeneic MC-38 colon adenocarcinoma tumors (n=8/group, implanted on Day 0) were administered test articles Compound 1 or anti-PD-1, as monotherapy or in combination, starting on Day 10. As monotherapy, anti-PD-1 was administered twice weekly (BIW) for 2 consecutive weeks by intraperitoneal (IP) injection at 200 μg/mouse (Days 10, 13, 17, and 20). As monotherapy, Compound 1 was administered twice daily (BID) at 50 mg/kg by oral gavage (PO) for 28 consecutive days (Days 10-37). As combination therapy with anti-PD-1 (administered at the dose and schedule indicated above), Compound 1 was administered BID at 50 mg/kg PO for 1) 7 consecutive days (Days 10-16); 2) 14 consecutive days (Days 10-23); 3) 21 consecutive days (Days 10-30); 4) 28 consecutive days (Days 10-37); or, 5) 7 consecutive days on the first and third week of dosing (Days 10-16 and Days 24-30). This set of cohorts was used to determine both the tolerability and efficacy of Compound 1 treatment across dosing schedules, as well as ocular toxicity upon recovery on Day 66.
For initial tumor outgrowth, a suspension of 1×10^6 MC-38 cells in a volume of 100 μL PBS was implanted subcutaneously on the right flank of the animal near the axillary region. Animals were then randomly assigned to treatment groups. Treatment was initiated on day 10 after MC-38 tumor cell inoculation to allow for a sufficient treatment window (Table 1).
Anti-PD-1 was administered twice weekly (BIW) for 2 consecutive weeks by intraperitoneal (IP) injection at 200 μg/mouse. Compound 1 was administered twice daily (BID) for 28 consecutive days by oral gavage (PO) at 50 mg/kg in 10 mL/kg dose volume (with or without anti-PD-1 administered on the above indicated dose and schedule). Alternatively, Compound 1 was administered BID for 7, 14 or 21 consecutive days, or on Days 10-16 and Days 24-30 in combination with anti-PD-1. Concomitantly, a set of satellite cohorts comprising tumor-naïve mice was treated with the same schedules and doses as indicated above.
Animals were monitored for tumor growth and body weight 2-3 times per week based on outgrowth kinetics. Tumor diameter was measured with digital calipers, and the tumor volume in mm^3 was calculated by the formula: Volume=((width)^2×length)/2. Animals were removed from study if found moribund or if tumor volume exceeded 1500 mm^3. […] Food, water, temperature and humidity were according to Pharmacology Testing Facility performance standards (SOPs) which are in accordance with the 1996 Guide for the Care and Use of Laboratory Animals (NRC) and AAALAC-International.
The murine MC-38 colon adenocarcinoma cell line was developed in C57BL/6 mice upon subcutaneous injection of dimethylhydrazine (Corbett, T. H., Griswold, D. P., et al. (1975), Cancer Research 35, 2434-2439). Extensive immunogenomic, transcriptomic, and therapeutic background are available on this cell line (Yadav, M., Jhunjhunwala, S., et al. (2014) Nature, 515, 572-576; and Efremova, M., Rieder, D., et al. (2018) Nat. Commun. 9, 32). The MC-38 cell line is reported to harbor driver mutations in TP53, PTEN, SMAD2, SMAD4, ACVR2A, TGFB2, BRAF, AXIN, SOX9, and ARID1A. Furthermore, mutations in the MMR gene MSH3 indicate that this cell line is a model of human MSI/hypermutated colorectal cancer. Whole exome sequencing has also identified 1290 transcript coding variations (compared to the reference C57BL/6 genome), among which 170 were predicted to be MHC Class I-presented neo-epitopes.
MC-38 (National Cancer Institute-Frederick Tumor Repository, Frederick, Md.) cells were grown in a humidified atmosphere of 5% CO2 using DMEM growth media (Gibco Life Technologies, 11965-092) supplemented with 10% fetal bovine serum (HyClone SH30071.03, Logan, Utah) and 100 U/mL penicillin, 100 μg/mL streptomycin (Gibco Life Technologies, 15140-122). Cells were confirmed murine virus and mycoplasma negative (IDEXX Laboratories Inc, Columbia, Mo.) prior to implantation. […]

[2] = biological target: T1, BCRP (Homo sapiens, UniProt Q9UNQ0); assay: BCRP substrate assessment in vitro; format: in vitro ADME
T1 sequence (Q9UNQ0 1-655): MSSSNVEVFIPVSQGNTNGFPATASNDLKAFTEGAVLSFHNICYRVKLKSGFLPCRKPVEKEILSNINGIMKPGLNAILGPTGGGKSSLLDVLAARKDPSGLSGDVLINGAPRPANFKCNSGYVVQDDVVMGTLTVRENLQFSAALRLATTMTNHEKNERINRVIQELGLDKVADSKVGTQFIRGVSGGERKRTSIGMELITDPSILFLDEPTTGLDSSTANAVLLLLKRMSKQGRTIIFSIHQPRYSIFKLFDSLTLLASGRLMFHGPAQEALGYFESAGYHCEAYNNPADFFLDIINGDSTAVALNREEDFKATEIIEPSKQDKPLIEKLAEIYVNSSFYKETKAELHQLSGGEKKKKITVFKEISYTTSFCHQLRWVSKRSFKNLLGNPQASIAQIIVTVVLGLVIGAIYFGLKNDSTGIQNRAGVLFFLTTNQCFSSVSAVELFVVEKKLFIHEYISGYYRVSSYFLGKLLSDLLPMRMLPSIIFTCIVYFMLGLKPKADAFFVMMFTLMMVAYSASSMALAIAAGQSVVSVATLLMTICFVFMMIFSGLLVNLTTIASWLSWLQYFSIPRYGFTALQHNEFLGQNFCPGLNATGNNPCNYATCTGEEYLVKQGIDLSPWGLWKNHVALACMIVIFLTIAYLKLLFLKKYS

[3] = biological target: P-gp (Homo sapiens, UniProt P08183); assay: P-gp inhibition; format: in vitro ADME
[4] = Compound 1 50 mg/kg PO BID Days 10-16 (7 days) in combination with anti-PD-1 200 μg IP BIW (Days 10, 13, 17, 20)
[5] = Compound 1 50 mg/kg PO BID Days 10-16 and Days 24-30 (interval schedule) in combination with anti-PD-1 200 μg IP BIW (Days 10, 13, 17, 20)
[6] = Compound 1 50 mg/kg PO BID Days 10-23 (14 days) in combination with anti-PD-1 200 μg IP BIW (Days 10, 13, 17, 20)
[7] = Compound 1 50 mg/kg PO BID Days 10-30 (21 days) in combination with anti-PD-1 200 μg IP BIW (Days 10, 13, 17, 20)
[8] = Compound 1 50 mg/kg PO BID Days 10-37 (28 days) in combination with anti-PD-1 200 μg IP BIW (Days 10, 13, 17, 20)
[9] = Compound 1 monotherapy, 50 mg/kg PO BID Days 10-37 (28 days)

Sequence of P-gp (P08183 whole entry): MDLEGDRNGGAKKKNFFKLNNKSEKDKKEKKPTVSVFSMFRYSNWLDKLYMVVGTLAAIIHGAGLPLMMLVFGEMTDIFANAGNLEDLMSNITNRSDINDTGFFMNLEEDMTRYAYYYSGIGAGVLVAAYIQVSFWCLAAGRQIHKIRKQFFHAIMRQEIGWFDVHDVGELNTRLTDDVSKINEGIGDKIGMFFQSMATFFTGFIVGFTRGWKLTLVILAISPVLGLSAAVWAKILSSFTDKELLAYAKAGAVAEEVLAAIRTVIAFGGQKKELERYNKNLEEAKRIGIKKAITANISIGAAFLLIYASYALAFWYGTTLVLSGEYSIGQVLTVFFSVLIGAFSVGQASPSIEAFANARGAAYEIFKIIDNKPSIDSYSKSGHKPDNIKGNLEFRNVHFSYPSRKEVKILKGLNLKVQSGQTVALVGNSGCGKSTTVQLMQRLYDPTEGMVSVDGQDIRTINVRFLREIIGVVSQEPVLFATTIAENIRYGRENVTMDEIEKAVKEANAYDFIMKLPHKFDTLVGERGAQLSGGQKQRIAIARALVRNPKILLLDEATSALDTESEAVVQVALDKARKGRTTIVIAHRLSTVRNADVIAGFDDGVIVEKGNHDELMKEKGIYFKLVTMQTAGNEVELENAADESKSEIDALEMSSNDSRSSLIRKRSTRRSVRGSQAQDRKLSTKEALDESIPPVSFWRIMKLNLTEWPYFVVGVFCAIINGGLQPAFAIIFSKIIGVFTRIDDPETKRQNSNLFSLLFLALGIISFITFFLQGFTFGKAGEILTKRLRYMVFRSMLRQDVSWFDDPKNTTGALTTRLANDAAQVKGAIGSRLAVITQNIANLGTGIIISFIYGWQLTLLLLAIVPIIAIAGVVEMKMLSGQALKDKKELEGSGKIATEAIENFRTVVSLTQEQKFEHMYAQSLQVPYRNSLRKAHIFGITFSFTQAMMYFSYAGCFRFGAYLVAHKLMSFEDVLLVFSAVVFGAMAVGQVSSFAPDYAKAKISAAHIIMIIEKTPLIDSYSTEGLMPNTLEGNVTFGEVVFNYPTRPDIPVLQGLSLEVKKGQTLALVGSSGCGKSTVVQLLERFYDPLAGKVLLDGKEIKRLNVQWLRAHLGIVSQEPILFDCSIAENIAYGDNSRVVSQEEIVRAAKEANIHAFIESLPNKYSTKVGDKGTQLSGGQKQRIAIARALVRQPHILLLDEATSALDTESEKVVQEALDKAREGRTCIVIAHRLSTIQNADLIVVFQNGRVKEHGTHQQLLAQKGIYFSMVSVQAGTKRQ

CC(C)n1cc(C(=O)Nc2ccc(Oc3ccnc4[nH]nc(N[C@H](C)CO)c34)c(F)c2)c(=O)n(-c2ccc(F)cc2)c1=O [Compound 1, (R)—N-(3-fluoro-4-((3-((1-hydroxypropan-2-yl)amino)-1H-pyrazolo[3,4-b]pyridin-4-yl)oxy)phenyl)-3-(4-fluorophenyl)-1-isopropyl-2,4-dioxo-1,2,3,4-tetrahydropyrimidine-5-carboxamide]
% TGI on Day 32 [1, 4]: 96.6% | Cures on Day 66 [1, 4]: 6/8 | Median Survival (days) ([1]; Compound 1 50 mg/kg PO BID Days 10-16 (7 days) in combination with anti-PD-1 200 μg IP BIW): not reached | % TGI on Day 32 [1, 5]: 96.2% | Cures on Day 66 [1, 5]: 4/8 | Median Survival (days) ([1]; Compound 1 50 mg/kg PO BID Days 10-16 and Days 24-30 (interval schedule) in combination with anti-PD-1 200 μg IP BIW): not reached | % TGI on Day 32 [1, 6]: 97.1% | Cures on Day 66 [1, 6]: 3/8 | Median Survival [1, 6]: 66 days | % TGI on Day 32 [1, 7]: 98.5% | Cures on Day 66 [1, 7]: 3/8 | Median Survival (days) ([1]; Compound 1 50 mg/kg PO BID Days 10-30 (21 days) in combination with anti-PD-1 200 μg IP BIW): not reached | % TGI on Day 32 [1, 8]: 99.3% | Cures on Day 66 [1, 8]: 5/7 | Median Survival (days) ([1]; Compound 1 50 mg/kg PO BID Days 10-37 (28 days) in combination with anti-PD-1 200 μg IP BIW): not reached | % TGI on Day 32 [1, 9]: 95.6% | Cures on Day 66 [1, 9]: 0/6 | Median Survival [1, 9]: 66 days | BCRP substrate status [2]: substrate of P-gp and BCRP | P-gp inhibitor status [3]: inhibitor of P-gp
